Measured values: ChEMBL document CHEMBL1128795, “N-(Quinuclidin-3-yl)-2-(1-methyl-1H-indol-3-yl)-2-oxo-acetamide: a high affinity 5-HT3 receptor partial agonist” (Bioorg Med Chem Lett, 1995)

How the values were obtained:
[1] = biological target: T1, Serotonin 3 (5-HT3) receptor (Rattus norvegicus, UniProt P35563+Q9JJ16); assay: Binding affinity against 5-Hydroxytryptamine 3 receptor; format: protein-complex assay
T1 sequence (P35563 whole entry): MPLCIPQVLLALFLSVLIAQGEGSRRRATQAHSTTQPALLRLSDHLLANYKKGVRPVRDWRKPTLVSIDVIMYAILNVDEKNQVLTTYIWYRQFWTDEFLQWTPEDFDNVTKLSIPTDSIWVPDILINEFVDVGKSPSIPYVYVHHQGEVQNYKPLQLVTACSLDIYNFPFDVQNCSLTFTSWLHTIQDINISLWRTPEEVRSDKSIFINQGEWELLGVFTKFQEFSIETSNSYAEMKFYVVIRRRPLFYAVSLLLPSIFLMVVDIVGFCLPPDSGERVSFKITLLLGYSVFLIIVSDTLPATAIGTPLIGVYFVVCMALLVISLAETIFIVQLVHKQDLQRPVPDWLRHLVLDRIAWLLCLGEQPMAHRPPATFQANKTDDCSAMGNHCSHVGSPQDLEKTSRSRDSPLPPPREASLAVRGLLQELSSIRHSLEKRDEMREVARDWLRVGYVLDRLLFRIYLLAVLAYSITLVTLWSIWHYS
T1 sequence (Q9JJ16 whole entry): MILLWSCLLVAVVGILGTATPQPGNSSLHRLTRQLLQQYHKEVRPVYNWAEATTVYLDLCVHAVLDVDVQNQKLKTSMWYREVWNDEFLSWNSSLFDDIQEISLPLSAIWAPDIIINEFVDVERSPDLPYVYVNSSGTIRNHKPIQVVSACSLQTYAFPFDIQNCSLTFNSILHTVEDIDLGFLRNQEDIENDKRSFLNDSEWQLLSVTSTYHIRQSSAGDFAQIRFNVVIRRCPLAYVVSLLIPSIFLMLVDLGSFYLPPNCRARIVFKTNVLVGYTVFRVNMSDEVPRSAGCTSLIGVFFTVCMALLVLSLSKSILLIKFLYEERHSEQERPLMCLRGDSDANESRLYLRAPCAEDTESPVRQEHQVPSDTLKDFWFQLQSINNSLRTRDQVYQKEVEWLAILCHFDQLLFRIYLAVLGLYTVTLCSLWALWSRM

[2] = biological target: T2, Alpha-2A adrenergic receptor (Homo sapiens, UniProt P08913); assay: Binding affinity against Alpha-2A adrenergic receptor
T2 sequence (P08913 whole entry): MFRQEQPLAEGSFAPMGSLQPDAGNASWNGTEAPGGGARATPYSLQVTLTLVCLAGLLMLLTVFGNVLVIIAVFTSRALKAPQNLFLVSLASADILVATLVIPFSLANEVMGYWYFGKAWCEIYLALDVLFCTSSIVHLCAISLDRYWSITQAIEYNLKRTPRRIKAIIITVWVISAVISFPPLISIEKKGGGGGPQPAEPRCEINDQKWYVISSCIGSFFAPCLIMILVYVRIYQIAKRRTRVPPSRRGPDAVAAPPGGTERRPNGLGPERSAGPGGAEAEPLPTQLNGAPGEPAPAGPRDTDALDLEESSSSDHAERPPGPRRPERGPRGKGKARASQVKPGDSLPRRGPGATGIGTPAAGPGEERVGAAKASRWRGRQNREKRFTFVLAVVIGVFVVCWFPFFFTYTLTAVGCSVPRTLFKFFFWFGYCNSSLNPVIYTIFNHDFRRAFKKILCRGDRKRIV

[3] = biological target: T3, Alpha-2B adrenergic receptor (Homo sapiens, UniProt P18089); assay: Binding affinity against Alpha-2B adrenergic receptor
T3 sequence (P18089 whole entry): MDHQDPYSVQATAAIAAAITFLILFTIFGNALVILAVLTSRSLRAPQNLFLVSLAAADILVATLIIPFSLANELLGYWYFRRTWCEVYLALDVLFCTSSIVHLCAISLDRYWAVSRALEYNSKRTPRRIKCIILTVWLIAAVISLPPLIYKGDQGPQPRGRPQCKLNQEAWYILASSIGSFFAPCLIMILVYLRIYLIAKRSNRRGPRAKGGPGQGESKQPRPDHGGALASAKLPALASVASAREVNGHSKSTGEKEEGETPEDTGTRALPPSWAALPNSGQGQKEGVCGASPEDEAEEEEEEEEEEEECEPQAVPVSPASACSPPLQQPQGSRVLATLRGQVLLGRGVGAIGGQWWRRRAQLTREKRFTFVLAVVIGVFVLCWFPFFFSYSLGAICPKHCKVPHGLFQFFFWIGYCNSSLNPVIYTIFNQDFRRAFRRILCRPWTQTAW

D(1A) dopamine receptor = D(1A) dopamine receptor (Homo sapiens, UniProt P21728); assay: Binding affinity against Dopamine D1 receptor
[4] = biological target: Muscarinic acetylcholine receptor M3 (Homo sapiens, UniProt P20309); assay: Binding affinity against Muscarinic M3 receptor
[5] = biological target: T4, Muscarinic acetylcholine receptor M1 (Homo sapiens, UniProt P11229); assay: Binding affinity against Muscarinic M1 receptor
T4 sequence (P11229 whole entry): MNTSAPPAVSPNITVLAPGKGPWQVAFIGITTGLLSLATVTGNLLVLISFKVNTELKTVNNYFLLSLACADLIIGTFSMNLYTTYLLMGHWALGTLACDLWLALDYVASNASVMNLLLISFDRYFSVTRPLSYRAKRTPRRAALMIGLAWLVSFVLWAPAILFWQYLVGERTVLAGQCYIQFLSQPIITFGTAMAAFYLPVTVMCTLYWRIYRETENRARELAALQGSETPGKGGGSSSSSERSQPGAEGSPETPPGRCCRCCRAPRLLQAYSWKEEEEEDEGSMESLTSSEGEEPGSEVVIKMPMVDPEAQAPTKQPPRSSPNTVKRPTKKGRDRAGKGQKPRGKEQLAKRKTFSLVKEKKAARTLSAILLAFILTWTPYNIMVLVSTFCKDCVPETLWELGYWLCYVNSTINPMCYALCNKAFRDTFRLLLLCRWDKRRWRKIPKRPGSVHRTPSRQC

[6] = biological target: T5, Serotonin 3 (5-HT3) receptor (Rattus norvegicus) (UniProt P35563+Q9JJ16); assay: Tested for % decrease in heart rate relative to pre-dose control against 2-methyl-5-HT induced bradycardia (von Bezold-Jarisch (B-J) reflex) in anesthetized rats; format: functional; design: scale not given: the % may be the effect or the level left
[7] = biological target: T5, Serotonin 3 (5-HT3) receptor (Rattus norvegicus); assay: Agonist activity against 2-methyl-5-HT induced bradycardia (von Bezold-Jarisch (B-J) reflex) in anesthetized rats; format: functional

Chain of D(1A) dopamine receptor (P21728 whole entry): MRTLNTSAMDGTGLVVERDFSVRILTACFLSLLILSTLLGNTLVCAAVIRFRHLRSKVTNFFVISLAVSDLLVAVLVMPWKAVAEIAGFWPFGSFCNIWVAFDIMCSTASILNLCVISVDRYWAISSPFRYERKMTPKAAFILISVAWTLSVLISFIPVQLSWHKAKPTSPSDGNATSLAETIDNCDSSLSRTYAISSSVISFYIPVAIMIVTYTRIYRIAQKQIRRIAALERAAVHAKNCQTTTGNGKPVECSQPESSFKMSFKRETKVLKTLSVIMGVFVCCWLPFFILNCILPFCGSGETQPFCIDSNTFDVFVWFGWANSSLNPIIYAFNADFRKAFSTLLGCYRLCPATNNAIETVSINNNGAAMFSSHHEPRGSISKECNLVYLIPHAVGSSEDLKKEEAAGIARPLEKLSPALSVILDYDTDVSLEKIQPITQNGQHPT
Chain of Muscarinic acetylcholine receptor M3 (P20309 whole entry): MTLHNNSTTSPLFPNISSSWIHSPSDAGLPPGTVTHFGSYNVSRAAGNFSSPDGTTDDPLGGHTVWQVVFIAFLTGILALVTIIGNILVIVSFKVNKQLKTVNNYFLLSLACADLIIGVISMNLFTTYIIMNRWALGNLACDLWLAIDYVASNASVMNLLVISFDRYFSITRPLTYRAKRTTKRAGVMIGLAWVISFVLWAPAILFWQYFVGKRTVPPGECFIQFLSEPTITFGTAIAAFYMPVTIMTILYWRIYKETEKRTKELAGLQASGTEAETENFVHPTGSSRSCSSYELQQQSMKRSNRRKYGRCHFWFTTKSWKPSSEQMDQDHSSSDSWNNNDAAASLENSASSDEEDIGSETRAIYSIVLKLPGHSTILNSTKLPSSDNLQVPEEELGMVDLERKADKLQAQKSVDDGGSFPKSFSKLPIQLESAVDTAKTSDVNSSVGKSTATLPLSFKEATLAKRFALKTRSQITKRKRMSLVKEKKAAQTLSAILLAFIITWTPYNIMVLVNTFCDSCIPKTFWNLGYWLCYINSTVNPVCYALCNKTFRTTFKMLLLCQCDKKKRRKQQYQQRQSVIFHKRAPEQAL

Row | SMILES | Ki [1] [µM] | Ki [2] [µM] | Ki [3] [µM] | Ki (D(1A) dopamine receptor) [µM] | Ki [4] [µM] | Ki [5] [µM] | Control [6] [%] | ED50 [7] [µg/kg]
1 | Cn1cc(C(=O)C(=O)N[C@H]2CN3CCC2CC3)c2ccccc21 | 0.000251 | 7.94 | 3.16 | > 100 | 50.1 | 10 | 24 | 0.6
2 | Cn1cc(C(=O)C(=O)N[C@@H]2CN3CCC2CC3)c2ccccc21 | 0.0126 | 31.6 | 25.1 | > 100 | 31.6 | 25.1 | 33 | 8.5
